Assays:
COLO 205 cell line = test: Transwell migration assay; format: cell-based; conditions: 2 and 4 μM, data not shown
Procedure: (§1) The effect of compound 15k on the invasiveness of LOVO was tested using 24 trans-well inserts with an […]. The addition of the insert to the well forms two chambers (upper and lower), where the upper chamber was used to grow the cells on the porous membrane. The lower chamber was filled with 600 μl of cell-free DMEM medium. A 200 μl of cell suspension was added to each insert and allowed to attach for 1 h. The test compound was added in different concentrations and incubated with the cells for 24 h. […] Finally, the remaining migrated cells were fixed by methanol and dyed with 0.1% crystal violet dye and observed with an EVOS microscope. The number of migrated cells was counted and compared between the treated and control cells.
The development of cancer metastasis is dependent on the migration and invasive properties of cancerous cells (van Zijl et al., [2011]). The wound healing and transwell migration assays were used with LOVO cells, as a model for metastatic CRC as it is characterized by a high level of invasiveness (Fan et al., [2015]). The wound healing assay is a well-established method to detect and analyze cell migration potential (Liang et al., [2007]). […] The effect of compound 15k on the invasiveness of COLO 205 cell line was also measured using trans-well migration assay. […] 15j also reversed cell migration and metastasis at different concentrations.

LOVO cells [1] = test: Transwell migration assay; format: cell-based, human; conditions: 2 and 4 μM, 24 h, vs vehicle
Procedure: as §1

LOVO = test: MTT assay; format: cell-based; conditions: Homo sapiens, 72 h incubation, mean ± SD of three experiments, read-out: IC50 ± SD, Colon LOVO
Procedure: (§2) The 3-(4,5-dimethylthiazol-2-yl)-2,5-diphenyltetrazolium bromide (MTT) assay was used to determine the sensitivity of the different CRC cells to the novel silybin derivatives (Hussein et al., [2017]; Manivannan et al., [2017]). The cells were seeded at a density of 4,000–5,000 cells/well in 96 well plates and incubated with serial dilutions of the compounds (0, 0.1, 0.3, 1, 3, 10, 30, and 100 μM). The MTT dye (4 mg/ml) was added after 72 h of incubation and incubated with the cells for an additional 4 h at 37°C. Following incubation, the media was discarded and the formazan crystals were dissolved by adding 100 μL of DMSO to each well. A DTX 880 multimode detector (Beckman Coulter Life, Indianapolis IN, USA) was used to determine the absorbance readings at a wavelength of 570 nm. The IC50 values were determined based on 3 separate experiments, with each experiment done in triplicate. The selectivity of the compounds was determined by comparing their cytotoxicity for CRC to normal epithelial cell lines (CHO, and CRL1459).

S1 = test: MTT assay; format: cell-based; conditions: Homo sapiens, 72 h incubation, mean ± SD of three experiments, read-out: IC50 ± SD, Colon S1
Procedure: as §2

HCT116 cells [2] = test: CellTiter-Glo luminescent assay (ATP content); format: cell-based; conditions: Homo sapiens, HCT-116, data not shown, read-out: IC50, ATP depletion
Procedure: Subsequently, we conducted experiments to determine if compound 15k produced a time-dependent effect on cell death. […] The HCT116 cells had intense fluorescence over time compared to the cells incubated with vehicle, with a significant difference in the number of dead cells after 24 h of incubation with 2 μM of 15k. […] The cytotoxicity of 15k and 15j in HCT116 cells were further determined using a more homogeneous CellTiter-Glo® luminescent cell based assay that measures the ATP content in the metabolically active cells.

CHO = test: MTT assay, normal cell line; format: cell-based, Chinese hamster; conditions: Cricetulus griseus, 72 h incubation, mean ± SD of three experiments
Procedure: as §2

HCT116 cells [3] = test: MitoTracker Red / Alexa Fluor 488 annexin V flow cytometry; format: cell-based, human; conditions: 2 or 4 μM, p < 0.001 vs control, data not shown
Procedure: The mitochondrial membrane potential and the induction of apoptosis were analyzed in HCT116 cells using the MitoTracker Red and Alexa Fluor 488 annexin V kits for flow cytometry as previously described (Karthikeyan et al., [2015]). Six well plates were used for seeding of cells, followed by incubation with 15j or 15k (0, 1, 2, and 4μM) for overnight. Subsequently, the cells were harvested, counted and 4 μl of a 10μM working solution of MitoTracker Red was added to each 1 ml cell suspension, followed by 30 min of incubation at 37°C with 5% CO2. The cells were resuspended in 100 μl of annexin binding buffer and 5 μl of Alexa Fluor 488 annexin V was added to the suspension and incubated for 15 min. Finally, 400 μl of annexin-binding buffer was added and the stained cells were detected by flow cytometry. The fluorescence emission at 530 and 585 nm was measured using a BD Accuri™ C6 flow cytometer and analyzed using FCS express 5 plus De Novo software.

HCT116 [4] = test: MTT assay; format: cell-based, human; conditions: Homo sapiens, HCT-116; MTT, 72 h incubation, mean ± SD of three experiments; read-out: IC50 ± SD, Colon HCT116
Procedure: as §2

HCT116 cells [5] = test: Colony formation assay; format: cell-based, human; conditions: 2 and 4 μM, 12 h incubation, colonies 10–14 days, vs vehicle control
Procedure: In this assay, HCT116 cells were seeded in 6 well plates at a density of 250,000 cells/plate and allowed to grow overnight. Compounds 15j and 15k (0, 2 or 4 μM) were added the following day. After 12 h of incubation, the medium was discarded and cells were trypsinized with 0.25% trypsin, 2.21 mM EDTA, 1X, harvested, counted and reseeded in 6 well plates at a low density (500 cell/well). The cells were allowed to form colonies for 10–14 days at 37°C, with the medium being changed every other day. Subsequently, methanol was used to fix the colonies formed in each plate, followed by dyeing the colonies with 0.1% crystal violet dye for 30 min. Finally, colonies were viewed and counted under an EVOS microscope (Themo Fisher Scientific, Wayne, MI, USA). The colony formation rate equation was applied for each compound: Colony formation rate = number of colonies/number of seeded cells × 100 %.

HCT116 [6] = test: Cell cycle analysis (PI, flow cytometry); format: cell-based, human; conditions: 0, 2 or 4 μM, 12 h, data not shown
Procedure: Cell cycle analysis was performed as described previously (Pozarowski and Darzynkiewicz, [2004]). Briefly, a 6 well plate was used for the seeding of HCT116 at 1 × 10^6 cells/well. The next day, 15j and 15k (0, 2, or 4 μM) were added and incubated with the seeded cells. After 12 h, the cells were trypsinzed with 0.25% trypsin, 2.21 mM EDTA, 1X, washed, counted and resuspended in 0.5 ml of ice cold PBS. PI stain was added to each suspension for at least 15 min to stain the DNA. The cell cycle analysis and cell distribution for each phase was measured using a BD Accuri™ C6 flow cytometer (BD Biosciences, Becton-Dickinson, San Jose, CA, USA) and analyzed using FCS express 5 plus De Novo software (Glendale, CA, USA).

LOVO cells [7] = test: Wound healing assay; format: cell-based, human; conditions: 2 and 4 μM, 24 h and 48 h, vs vehicle
Procedure: In brief, the metastatic CRC cells (LOVO) were seeded in 6 well plates and allowed to grow as a monolayer until they reached 100% confluence. Upon confluence, 200 μl sterile tips were used to create a wound by gentle scratching of the complete cell monolayer. Sterile PBS was used to wash the cells several times to remove any floating cells. Different concentrations of the test compound were prepared in the culture media and added immediately after wound formation. The closure of the wound was observed by taking pictures at different time points by an EVOS microscope. Finally, the area of the wounds at different time points was calculated using Image J software (NIH, Bethesda, Maryland, USA).

CRL-1459 = test: MTT assay, normal cell line; format: cell-based; conditions: 72 h incubation, mean ± SD of three experiments
Procedure: as §2

[8] = tested on: CRC cell lines (HCT116, LOVO, and S1); test: MTT assay, CRC cell lines together; format: cell-based, human; conditions: MTT, vs CRL1459 and CHO
Procedure: as §2

[9] = tested on: xenograft model in mice using SW480 cells; design: method as in Kaur et al., 2010; conditions: i.p. 100 or 200 mg/kg; ref Kaur et al., 2010; cited from earlier work
[10] = tested on: SW480 cells with a mutant APC gene; design: method as in Kaur et al., 2010; conditions: 50–200 μM; ref Kaur et al., 2010; cited from earlier work
[11] = design: method as in Dixit et al., 2007; Zhu et al., 2013; Amawi et al., 2017b; conditions: ref Dixit et al., 2007; Zhu et al., 2013; Amawi et al., 2017b; cited from earlier work
PC3 and PC3MM2 cells [12] = tested on: PC3 and PC3MM2 cells; design: method as in Deep et al., 2011; conditions: 30 and 90 μM; ref Deep et al., 2011; cited from earlier work
EMT—driven resistance = tested on: EMT—driven resistance; design: method as in Cufí et al., 2013; conditions: 100 mg/kg; ref Cufí et al., 2013; cited from earlier work
[13] = tested on: transgenic mice with prostate adenocarcinomas; design: method as in Singh et al., 2008; conditions: 0.5 and 1% (w/w); ref Singh et al., 2008; cited from earlier work
ARCaP(M) cells = tested on: ARCaP(M) cells; design: method as in Wu et al., 2009; conditions: 100 and 200 μM; ref Wu et al., 2009; cited from earlier work
[14] = tested on: Wnt/β-catenin signaling in PC-3, DU-145, MDAMB-231 and T-47D cells; design: method as in Lu W. et al., 2012; conditions: 100–200 μM; ref Lu W. et al., 2012; cited from earlier work
[15] = tested on: CRC lines HCT116 and HT29; design: method as in Agarwal et al., 2003; conditions: ref Agarwal et al., 2003, cited from earlier work
PC3 and PC3MM2 cells [16] = tested on: PC3 and PC3MM2 cells; design: method as in Deep et al., 2011; conditions: 90 μM; ref Deep et al., 2011; cited from earlier work

**Q.** What does the source list for `O=C(/C=C/c1cccc(OCc2ccccc2)c1)c1ccc(Br)cc1` [Compound 15j]?
**A.** trans-well migration (COLO 205 cell line): significantly reduced the trans-well migration; number of cells migrated through transwell (LOVO cells [1]): significantly reduced the trans-well migration; IC50 (LOVO): 1800 ± 400 nM; IC50 (S1): 2400 ± 700 nM; IC50 (HCT116 cells [2]): 690 nM; IC50 (CHO): 9000 ± 500 nM; mitochondrial membrane potential and apoptosis (HCT116 cells [3]): significant reduction in membrane potential and increase in the number of cells undergoing apoptosis; IC50 (HCT116 [4]): 1000 ± 200 nM; colony formation rate (HCT116 cells [5]): significantly decreased colony formation rate; effect on the cell cycle (HCT116 [6]): significantly increased the level of cells in the sub G1 phase; cell migration, wound closure (LOVO cells [7]): migrated significantly slower; IC50 (CRL-1459): 5400 ± 1000 nM; selectivity, CRC cells compared to normal cells [8]: selectively cytotoxic

**Q.** Which “effects in SW480 xenograft” value [9] does the source give for `COc1cc(C2Oc3cc([C@H]4Oc5cc(O)cc(O)c5C(=O)[C@@H]4O)ccc3OC2CO)ccc1O` (stereo partly drawn) [silybin] here?
**A.** produced similar effects

**Q.** And the “nuclear β-catenin, c-Myc expression and apoptosis” value [10]?
**A.** significantly inhibited the expression of nuclear β-catenin, c-Myc and induced apoptosis

**Q.** What about the bioavailability [11] of the same compound?
**A.** poor bioavailability

**Q.** And the “migratory and invasive capacities” value (PC3 and PC3MM2 cells [12])?
**A.** inhibits the migratory and invasive capacities

**Q.** What about the EMT-driven resistance (EMT—driven resistance) of the same compound?
**A.** significantly decreased

**Q.** What about the “E-cadherin, vimentin and MMP-2 expression” value [13] of the same compound?
**A.** significantly upregulate E-cadherin and decrease the expression of the EMT markers, vimentin and MMP-2

**Q.** What about the invasiveness (ARCaP(M) cells) of the same compound?
**A.** inhibits the invasiveness

**Q.** What about the Wnt/β-catenin signaling [14] of the same compound?
**A.** significantly decreased

**Q.** And the “concentration that inhibits proliferation” value ([15]; HCT116 and HT29)?
**A.** 50 to 200 µM

**Q.** And the “cell cycle arrest and apoptosis” value [15]?
**A.** induces both G1 and G2 cell cycle arrest and induces apoptosis

**Q.** What about the “E-cadherin and nuclear β-catenin levels” value (PC3 and PC3MM2 cells [16]) of the same compound?
**A.** significant upregulation in E-cadherin and downregulation in nuclear β-catenin levels

— paper PMC5974752, “Bax/Tubulin/Epithelial-Mesenchymal Pathways Determine the Efficacy of Silybin Analog HM015k in Colorectal Cancer Cell Growth and Metastasis” (Frontiers in Pharmacology, 2018)
